Assay results published in the supplement of paper PMC3937590.

Columns and labels:
Experiment in all cases: -log10 GI50 (growth inhibition 50%) (-log10(M)); higher = more potent growth inhibition
184B5 = system: 184B5
Outline: (§1)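 Dose-response data came from breast cancer cell lines exposed to each compound for 72 hours at nine doses in 1:5 serial dilution, in triplicate, and read by luminescence relative to a time-zero plate. A Gompertz curve fitted by nonlinear least squares gave GI50, the molar concentration for the set level of growth inhibition, reported as its negative logarithm to base 10. Where a value equals the top dose, it carries a < qualifier.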

BT483 = system: BT483
Outline: as §1

HCC1806 = system: HCC1806
Outline: as §1

HCC1937 = system: HCC1937
Outline: as §1

HCC3153 = system: HCC3153
Outline: as §1

HCC70 = system: HCC70
Outline: as §1

LY2 = system: LY2
Outline: as §1

MCF10A = system: MCF10A
Outline: as §1

MDAMB157 = system: MDAMB157
Outline: as §1

MX1 = system: MX1
Outline: as §1

SKBR3 = system: SKBR3
Outline: as §1

SUM1315MO2 = system: SUM1315MO2
Outline: as §1

SUM149PT = system: SUM149PT
Outline: as §1

SUM225CWN = system: SUM225CWN
Outline: as §1

SUM229PE = system: SUM229PE
Outline: as §1

SUM52PE = system: SUM52PE
Outline: as §1

T47D_KBluc = system: T47D_KBluc
Outline: as §1

T47D = system: T47D
Outline: as §1

UACC812 = system: UACC812
Outline: as §1

ZR751 = system: ZR751
Outline: as §1

SMILES	-log10 GI50 (184B5)	-log10 GI50 (BT483)	-log10 GI50 (HCC1806)	-log10 GI50 (HCC1937)	-log10 GI50 (HCC3153)	-log10 GI50 (HCC70)	-log10 GI50 (LY2)	-log10 GI50 (MCF10A)	-log10 GI50 (MDAMB157)	-log10 GI50 (MX1)	-log10 GI50 (SKBR3)	-log10 GI50 (SUM1315MO2)	-log10 GI50 (SUM149PT)	-log10 GI50 (SUM225CWN)	-log10 GI50 (SUM229PE)	-log10 GI50 (SUM52PE)	-log10 GI50 (T47D_KBluc)	-log10 GI50 (T47D)	-log10 GI50 (UACC812)	-log10 GI50 (ZR751)
CC(C)C[C@@H](C=O)NC(=O)[C@H](CC(C)C)NC(=O)[C@H](CC(C)C)NC(=O)OCc1ccccc1 [MG-132]	7.79	6.81	6.5	6.82	6.84	7.19	6.49	7.21	6.76	6.88	6.58	6.92	6.8	7.01	6.98	7.12	6.77	6.97	6.72	6.26
NS(=O)(=O)OC[C@@H]1C[C@@H](n2ccc3c(N[C@H]4CCc5ccccc54)ncnc32)C[C@@H]1O [MLN4924]	6.93	5.53	7.67	5.58	6.44	5.47	7	6.31	7.25	5.7	6.82	5.67	6.73	5.28	6.59	6.41	6.71	6.93	5.98	5.32
COc1ccc(C2=N[C@@H](c3ccc(Cl)cc3)[C@@H](c3ccc(Cl)cc3)N2C(=O)N2CCNC(=O)C2)c(OC(C)C)c1 [Nutlin 3a]	5.3	5.19	4.32	4.65	4.56	4.73	5.29	5.21	4.76	4.65	4.33	4.75	4.56	4.69	4.63	4.74	4.5	4.51	5.45	5.51
O=C(/C=C/C#Cc1cccc(NS(=O)(=O)c2ccccc2)c1)NO [Oxamflatin]	6.06	6.27	6.16	5.84	5.82	6.36	5.89	6.14	6.13	6.32	5.95	5.64	6.23	6.06	5.74	6.23	5.9	6.06	5.75	5.65
O=S(=O)(CC1CS1)c1ccc(Oc2ccccc2)cc1 (stereo not given) [SB-3CT]	< 3.78	4.59	< 4	< 4	< 4	< 3.78	< 4	4.05	< 3.78	4.85	< 4	4.02	4.27	< 4	< 4	4.33	< 3.78	< 4	< 4	< 3.78
N#Cc1c(-c2ccccc2)cc(-c2cc(Br)ccc2O)[nH]c1=O [TCS PIM-11]	5.61	< 3.88	< 3.88	< 3.88	< 3.88	4.47	< 3.88	4.57	< 3.88	4.73	< 3.88	4.75	4.49	4.53	4.57	4.72	< 3.88	< 4.18	< 3.88	4
CC(/C=C/C(=O)NO)=C\[C@@H](C)C(=O)c1ccc(N(C)C)cc1 [Trichostatin A]	4.34	5	4.97	4.82	4.62	4.84	4.99	4.82	4.68	4.79	5.21	4.31	5.14	4.86	4.83	5.58	5.4	5.46	5.05	4.74
CCCC(CCC)C(=O)O [Valproic acid]	3.07	3.01	2.58	2.56	2.55	2.99	2.96	2.97	2.68	3.45	3.04	2.62	2.86	2.76	2.65	2.91	2.76	2.53	2.59	2.78
